For data set [1], the system named is influenza virus (A/Weiss/43(H1N1)). Description: Cytopathic effect assay (CPE assay), antiviral activity. Format: cell-based. Particulars: MDCK cells, CPE inhibition, CCK-8; read-out: EC50 against influenza virus (A/Weiss/43(H1N1)) in vitro. For orientation: Damage to the host cells serves as the signal in cytopathic effect assays.
Another data set deals with MDCK cells. Nature of the data set: Cytotoxicity test group of the CPE assay (no virus added, CCK-8 kit). The format is cell-based. How it is done: Experimental Procedures: MDCK cells were seeded in a 384-well plate with 2000 cells per wells, which were incubated overnight at 37° C., 5% CO2; The culture medium was changed to the fresh culture solution containing different concentrations of the compound and virus H1N1 A/Weiss/43 at a multiplicity of infection to yield 80-95% CPE on the second day. The test compound was serially diluted from the highest concentration of 100 nM in 1:3 dilutions to give 8 concentrations: 100 nM, 33.33 nM, 11.11 nM, 3.70 nM, 1.23 nM, 0.41 nM, 0.14 nM, 0.05 nM. At the same time, a non-medicated virus control group and a non-medicated cell control group free of virus were set up. No virus was added in the cytotoxicity test group but medium was added for replacement. Each group was set in duplicate, and incubated at 37° C. in 5% CO2. The cell activity was measured according to the CCK-8 kit (source: Shanghai Liji Biotechnology Co., Ltd. #D3100L4057) and the data would be used to calculate the antiviral and cytotoxicity of the compound. Data were analyzed by GraphPad Prism, CPE inhibition rate was calculated, and the EC50 was obtained according to the fitted curve. CPE inhibition rate=(absorbance of dosing hole-absorbance of virus control well)/(absorbance of cell control well-virus control well)×100%
(In general: Tetrazolium dyes change colour on reduction, which living cells bring about.)

What is called CC50 is the concentration giving 50% cytotoxicity. Turning to “(12aR)-12-((8R)-4,5-difluoro-2-phenyl-8H-dibenzo[3,4:6,7]cyclohept[1,2-b]thiophen-8-yl)-7-hydroxy-3,4,12,12a-tetrahydro-1H-[1,4]oxazino[3,4-c]pyrido[2,1-f] [1,2,4] triazine-6,8-dione and (12aS)-12-((8S)-4,5-difluoro-2-phenyl-8H-dibenzo[3,4:6,7]cyclohept[1,2-b]thiophen-8-yl)-7-hydroxy-3,4,12,12a-tetrahydro-1H-[1,4] oxazino [3,4-c] pyrido [2,1-f][1,2,4] triazine-6,8-dione [Example 12]”, the EC50 in data set [1] was determined as 0.0493 µM. Besides, it took 112 µM to reach half-maximal cytotoxicity with MDCK cells (CC50).

As to “The mixture of (12aR)-12-((8R)-4-fluoro-8H-dibenzo [3,4:6,7]cyclohepta[1,2-b]thiophen-8-yl)-7-hydroxy-3,4,12,12a-tetrahydro-1H-[1,4]oxazino [3,4-c] pyrido [2,1-f] [1,2,4]triazine-6,8-dione and (12aR)-12-((8S)-4-fluoro-8H-dibenzo [3,4:6,7] cyclohept[1,2-b]thiophen-8-yl)-7-hydroxy-3,4,12,12a-tetrahydro-1H-[1,4]oxazino [3,4-c] pyrido [2,1-f] [1,2,4]triazine-6,8-dione [Example 36]”, the EC50 in data set [1] worked out at 0.00987 µM. Moreover, the midpoint of cytotoxicity in the data set with MDCK cells, the CC50, lay at 36 µM.

(Values after patent US11104689B2, “Influenza virus replication inhibitor and use thereof” (SUNSHINE LAKE PHARMA CO., LTD., priority 2017, dated 2021).)
